From paper PMC11618975, “Design and Development of Novel Hybrids Based on Pyrrolo[2,1‐f][1,2,4]Triazine and 1‐(Methylpiperidin‐4‐yl) Aniline–Based Analogs: Exploring the Utility as Anticancer Agents via MERTK Inhibition” (Chemical Biology & Drug Design, 2024)
Entries after “also recorded” stand apart in the source; their conditions may differ. Where two headings read alike, the source gives them in different places.

Legend:
A549 lung cancer cells = test: Cell viability (resazurin) assay, A549; format: cell-based; conditions: read-out: IC50 values (mean ± SD) A549
Protocol: (§1) This includes lung cancer cells (A549) and breast cancer cells (MCF‐7 and MDA‐MB‐231). […] The remaining compounds were also found to portray the inhibition at a low micromolar range and better than the cisplatin, employed as a positive control during the experiment.
(§2) The cell viability assay of new compounds was performed against A549, MCF‐7, and MDA‐MB‐231 carcinoma cell lines. The cells (2500 cells/well) were seeded in a 96‐well plate using DMEM media (Gibco by Life Technologies) consisting of 10% FBS and subjected to incubation at 37°C for 24 h in 5% CO2 in a Nuaire incubator (humidified) for adherence to surface and growth. After 24 h, cells were subjected to treatment against target compounds (1K1‐1K5) at different concentrations (final concentrations ranging from 0.01–30 μM) and left for incubation for 72 h at the same conditions as mentioned above. The same procedure was repeated after 72 h after replacing the remaining test compound with fresh media and incubating treated cells for a further 48 h. After incubation, the remaining compounds with media were removed followed by washing with fresh media and the addition of 100 μL of resazurin (1 mM, Sigma). The 96‐well plate was incubated for 4 h at room temperature. A multimode microplate reader was used to record fluorescence at 535 nm (excitation) and 590 nm (emission) wavelengths. Background fluorescence was subtracted for calculating final results and avoiding any interference and normalized against vehicle control (DMSO treated cells) to calculate final cell viability. Cell viability (percentage) was used to calculate the IC50 values of the target compounds using fitting the curve to the “four‐parameter variable slope logistic model” using Prism Graph Pad (Kathuria et al. [2023]; Rani et al. [2023]).

[1] = system: MCF-7 breast cancer cells; test: Cell viability (resazurin) assay, MCF-7; format: cell-based; conditions: read-out: IC50 values (mean ± SD) MCF-7
Protocol: as §1, §2

[2] = system: MDA-MB-231 breast cancer cells; test: Cell viability (resazurin) assay, MDA-MB-231; format: cell-based; conditions: MDA-MB-231 cells, read-out: IC50 values (mean ± SD) MDA-MB-231
Protocol: as §1, §2

[3] = Human liver microsomal stability (DMPK); format: in vitro ADME; conditions: for % parent remaining: human liver microsomes 0.5 mg/mL, 1 μM compound, NADPH, 30 min; for half-life at 1 μM: human, liver microsomes, pH 7.4, human liver microsomes, read-out: T 1/2 (HLM); for microsomal CLint at 1 μM: pH 7.4, human liver microsomes, read-out: CLint (HLM)
Protocol: (§3) To understand the intrinsic pharmacokinetics of synthetics and their stability in relation to human liver microsomal (HLM) and mouse liver microsomal (MLM), we performed the DMPK studies.
(§4) The DMPK evaluation involves multiple reagents and instruments. The chemical and reagents include synthesized target molecules (at a concentration of 1–3 mg), DMSO (HPLC grade), PBS (pH = 7.4), NADPH, and liver microsomes (human and mouse) procured from Thermo. The instruments include Nexera X2 UPLC with an AB Sciex QTrap 4500 MS/MS detector (Shimadzu), single and multichannel micropipette (Eppendorf USA and Thermo), a 96‐well plate (1 mL capacity with deep wells) vortex mixer (Tarsons), centrifuge tubes (Tarsons) water bath (MRC), and a centrifuge (Thermo). The fresh stock solutions (10 mM) were prepared and incubations were carried out in duplication. Each well‐comprised potassium phosphate buffer (100 mM, pH 7.4) with 0.5 mg/mL microsome, NADPH (1 mM), and target molecule (1 μM). After 30 min incubation (37°C), the aliquots were taken at 0 and 30 min and quenched with chilled acetonitrile comprising Terfenadine as internal standard. The samples were centrifuged at 4000 rpm at 4°C, and the supernatant was subjected to LC–MS/MS for analysis. The experiment was used to determine the half‐life of the compound with the help of peak area ratio relative to the internal standard.

[4] = Mouse liver microsomal stability (DMPK); format: in vitro ADME; conditions: for % parent remaining: mouse liver microsomes 0.5 mg/mL, 1 μM compound, NADPH, 30 min; for half-life at 1 μM: mouse, liver microsomes, pH 7.4, mouse liver microsomes, read-out: T 1/2 (MLM); for microsomal CLint at 1 μM: pH 7.4, mouse liver microsomes, read-out: CLint (MLM)
Protocol: as §3, §4

MERTK (cMER) = target: T1, MERTK (cMER) (Homo sapiens, UniProt Q12866); test: MERTK kinase inhibition assay (Z-Lyte kinase assay kit); format: biochemical
T1 sequence (Q12866 21-999): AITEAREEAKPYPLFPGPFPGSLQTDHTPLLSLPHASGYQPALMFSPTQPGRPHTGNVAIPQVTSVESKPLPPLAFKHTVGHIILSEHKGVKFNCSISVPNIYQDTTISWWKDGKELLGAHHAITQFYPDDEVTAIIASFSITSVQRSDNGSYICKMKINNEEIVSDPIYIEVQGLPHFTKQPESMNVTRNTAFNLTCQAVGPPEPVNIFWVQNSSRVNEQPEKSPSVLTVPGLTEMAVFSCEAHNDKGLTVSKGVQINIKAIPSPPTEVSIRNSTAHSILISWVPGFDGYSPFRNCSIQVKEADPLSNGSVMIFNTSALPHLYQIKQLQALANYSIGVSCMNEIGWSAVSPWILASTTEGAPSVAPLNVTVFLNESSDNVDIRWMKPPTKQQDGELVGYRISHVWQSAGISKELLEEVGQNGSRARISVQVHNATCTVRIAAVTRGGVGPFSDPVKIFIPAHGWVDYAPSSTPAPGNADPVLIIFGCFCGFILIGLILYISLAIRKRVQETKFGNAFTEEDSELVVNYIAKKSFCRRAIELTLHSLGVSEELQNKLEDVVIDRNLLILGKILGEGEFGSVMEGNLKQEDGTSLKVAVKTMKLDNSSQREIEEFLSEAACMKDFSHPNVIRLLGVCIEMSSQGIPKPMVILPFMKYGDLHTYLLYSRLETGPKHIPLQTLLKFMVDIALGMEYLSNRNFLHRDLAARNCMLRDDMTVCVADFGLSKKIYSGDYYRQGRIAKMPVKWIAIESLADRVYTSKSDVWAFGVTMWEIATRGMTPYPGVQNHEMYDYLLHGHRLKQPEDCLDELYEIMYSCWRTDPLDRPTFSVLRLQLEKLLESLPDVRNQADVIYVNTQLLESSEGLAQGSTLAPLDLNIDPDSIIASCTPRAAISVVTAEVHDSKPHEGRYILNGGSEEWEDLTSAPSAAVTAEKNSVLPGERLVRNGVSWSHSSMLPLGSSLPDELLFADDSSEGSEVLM
Protocol: All the synthesized molecules were assessed for their kinase inhibitory activity against MERTK using a kinase inhibition assay.
[…] (z‐Lyte kinase assay kit‐tyr4 peptide) was utilized to determine MERTK inhibitory activity as per the protocol supplied by the supplier along with the kit. Briefly, the mixture of MERTK (cMER) / Tyr 02 (2X) was made using HEPES buffer (50 mM, pH 7.5) comprising polyoxyethylene lauryl ether solution (0.01%), MgCl2 (10 mM), MnCl2 (4 mM), EGTA (1 mM), and DTT (2 mM). The kinase solution of 10 μL was used as the final reaction solution. In the next step, the target molecules in varying concentrations were incubated with kinase solution for 1 h. Development reagent A (5 μL) of 1:128 dilution was added after the incubation period. The fluorescence was measured at Ex/Em 400, 445, and 520 nm using a microplate reader for the determination of final percentage inhibition. The percent phosphorylation was determined via the use of the emission ratio calculated from the division of Coumarin Emission (at 445 nm) to fluorescein emission (at 520 nm). %phosphorylation=1−Emission ratio×F100%−C100%/C0%−C100%+Emission ratioF100%−F0%

[5] = Homo sapiens, MCF7, MCF-7 cells

Compound	IC50 (A549 lung cancer cells; Homo sapiens) [µM]	IC50 [1, 5] [µM]	IC50 ([2]; Homo sapiens) [µM]	% parent remaining [3] [%]	half-life at 1 μM [3] [h]	microsomal CLint at 1 μM [3] [µL/min/mg]	% parent remaining [4] [%]	half-life at 1 μM [4] [h]	microsomal CLint at 1 μM [4] [µL/min/mg]	inhibition of MERTK (MERTK (cMER); 1 and 10 μM test concentrations)	MERTK inhibition compared with positive control staurosporine (MERTK (cMER); listed as IK5)	IC50 (A549 lung cancer cells) [µM]	IC50 ([1]; MCF-7 cells) [µM]	IC50 [2] [µM]
CN1CCC(c2ccc(Nc3ncnn4cc(-c5cc(F)c(F)c(F)c5)cc34)cc2F)CC1 [1K1, N‐(3‐Fluoro‐4‐(1‐Methylpiperidin‐4‐yl)phenyl)‐6‐(3,4,5‐trifluorophenyl)pyrrolo[2,1‐f][1,2,4]Triazin‐4‐Amine]	8.63 ± 0.021	1.28 ± 0.014	4.02 ± 0.015	71.7	1.04	22	70	0.972	24					
CN1CCC(c2ccc(Nc3ncnn4cc(-c5ccc(C(C)(C)C)cc5)cc34)cc2F)CC1 [1K3, 6‐(4‐(Tert‐butyl)phenyl)‐N‐(3‐Fluoro‐4‐(1‐Methylpiperidin‐4‐yl)phenyl)pyrrolo[2,1‐f][1,2,4]Triazin‐4‐Amine]	1.44 ± 0.017	1.42 ± 0.021	4.06 ± 0.019	65.7	0.615	28	57	0.823	38					
N.N.[Cl][Pt][Cl] [Cisplatin, cisplatin, reference compound]												5.86 ± 0.009	4.93 ± 0.13	5.42 ± 0.09

The next lines start with results.

IC50 (A549 lung cancer cells; Homo sapiens) [µM]	IC50 [1, 5] [µM]	IC50 ([2]; Homo sapiens) [µM]	% parent remaining [3] [%]	half-life at 1 μM [3] [h]	microsomal CLint at 1 μM [3] [µL/min/mg]	% parent remaining [4] [%]	half-life at 1 μM [4] [h]	microsomal CLint at 1 μM [4] [µL/min/mg]	inhibition of MERTK (MERTK (cMER); 1 and 10 μM test concentrations)	Compound	MERTK inhibition compared with positive control staurosporine (MERTK (cMER); listed as IK5)	IC50 (A549 lung cancer cells) [µM]	IC50 ([1]; MCF-7 cells) [µM]	IC50 [2] [µM]
1.18 ± 0.019	0.44 ± 0.015	1.7 ± 0.011	82.8	1.83	13	83.4	1.9	12		CCOc1c(Cl)cc(-c2cc3c(Nc4ccc(C5CCN(C)CC5)c(F)c4)ncnn3c2)cc1OC [1K2, 6‐(3‐Chloro‐4‐Ethoxy‐5‐Methoxyphenyl)‐N‐(3‐Fluoro‐4‐(1‐Methylpiperidin‐4‐yl)phenyl)pyrrolo[2,1‐f][1,2,4]Triazin‐4‐Amine]				
0.89 ± 0.011	1.14 ± 0.011	1.47 ± 0.014	75.8	1.25	18	91.7	3.97	6		COc1cc(-c2cc3c(Nc4ccc(C5CCN(C)CC5)c(F)c4)ncnn3c2)cc(Cl)c1F [1K4, 6‐(3‐Chloro‐4‐Fluoro‐5‐Methoxyphenyl)‐N‐(3‐Fluoro‐4‐(1‐Methylpiperidin‐4‐yl)phenyl)pyrrolo[2,1‐f][1,2,4]Triazin‐4‐Amine]				
0.36 ± 0.019	0.42 ± 0.017	0.8 ± 0.011	94.9	6.61	3	79.7	1.54	15	approx. 42%	CCOc1ccc(-c2cc3c(Nc4ccc(C5CCN(C)CC5)c(F)c4)ncnn3c2)cc1OC [1K5, 6‐(4‐Ethoxy‐3‐Methoxyphenyl)‐N‐(3‐Fluoro‐4‐(1‐Methylpiperidin‐4‐yl)phenyl)pyrrolo[2,1‐f][1,2,4]Triazin‐4‐Amine]	comparable inhibition to positive control staurosporine; also recorded: comparable inhibitory potential to the positive control drug staurosporine			
